For orientation: IC50 means the concentration that gives 50% inhibition. A word on the EC50: it is the midpoint of the concentration-response curve. As a reminder, the Tmax is the time from dosing to the highest level.

The source of these data is patent US11746087B1, “C4-carboxylic acid-substituted tryptamine derivatives and methods of using” (priority 2022, dated 2023).

Values joined by “and” are separate entries in the source; they are usually repeats but may differ in a detail not shown here. Identical values can stand only once. A value given as a limit tells only on which side of the number the result lay.

For one data set, the target named is DAT (Homo sapiens, UniProt Q01959). The data set can be described thus: Neurotransmitter transporter uptake assay, blocker. It is filed as cell-based.
For another data set, the target named is HTR1B (5-HTR1B) (Homo sapiens, UniProt P28222). In words: EFC-based cAMP secondary messenger assay, agonist mode. The data set is classed as cell-based.
A further data set addresses T1, CHRM2 (Homo sapiens, UniProt P08172).
T1 sequence (P08172 1-466): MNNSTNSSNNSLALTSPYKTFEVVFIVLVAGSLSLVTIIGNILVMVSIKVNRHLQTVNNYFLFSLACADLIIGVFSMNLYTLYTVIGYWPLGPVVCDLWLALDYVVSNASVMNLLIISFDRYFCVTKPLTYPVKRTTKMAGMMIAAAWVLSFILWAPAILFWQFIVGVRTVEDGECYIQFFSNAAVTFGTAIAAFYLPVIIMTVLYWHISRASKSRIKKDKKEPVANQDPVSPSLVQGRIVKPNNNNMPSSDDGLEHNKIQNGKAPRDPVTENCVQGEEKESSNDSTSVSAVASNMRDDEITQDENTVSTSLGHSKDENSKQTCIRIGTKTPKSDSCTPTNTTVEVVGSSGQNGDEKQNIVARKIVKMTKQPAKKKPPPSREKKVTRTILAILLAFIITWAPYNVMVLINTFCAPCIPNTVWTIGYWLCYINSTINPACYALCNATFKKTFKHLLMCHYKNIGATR
In words: EFC-based cAMP secondary messenger assay, antagonist mode. The data set is classed as cell-based.

The target in the next data set is AVPR1A (Homo sapiens, UniProt P37288). In words: Calcium secondary messenger assay, agonist mode. The data set is classed as cell-based.
The target of data set [1] is T2, CNR1 (Homo sapiens, UniProt P21554). In words: EFC-based cAMP secondary messenger assay, agonist mode. The data set is classed as cell-based.
Data set [2] in a line: Mouse PK study (IV and PO), plasma parent compound and psilocin by LC-MS/MS. It is filed as in vivo. As to conditions: for detectability of parent compound in plasma, any dose: i.v. and oral, any animals at any dose. From the text:
Briefly, the procedure was as follows. […] 19, 2022.

For a further data set, the target named is T3, MAO-A (Homo sapiens, UniProt P21397).
T3 construct: purchased Sigma
T3 sequence (P21397 1-527): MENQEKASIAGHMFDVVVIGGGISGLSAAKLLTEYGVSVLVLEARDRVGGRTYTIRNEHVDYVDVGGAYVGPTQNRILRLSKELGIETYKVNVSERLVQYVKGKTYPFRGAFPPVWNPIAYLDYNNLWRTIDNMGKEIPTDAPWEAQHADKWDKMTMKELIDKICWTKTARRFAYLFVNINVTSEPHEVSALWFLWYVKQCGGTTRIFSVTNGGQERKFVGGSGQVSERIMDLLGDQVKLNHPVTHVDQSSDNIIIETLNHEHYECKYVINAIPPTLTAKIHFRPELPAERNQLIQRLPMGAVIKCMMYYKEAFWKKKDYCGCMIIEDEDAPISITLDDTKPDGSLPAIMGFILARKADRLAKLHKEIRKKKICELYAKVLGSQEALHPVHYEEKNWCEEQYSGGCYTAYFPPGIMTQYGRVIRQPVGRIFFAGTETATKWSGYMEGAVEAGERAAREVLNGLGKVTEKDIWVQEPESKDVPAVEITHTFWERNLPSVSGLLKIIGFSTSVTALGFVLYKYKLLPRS
The data set can be described thus: MAO-A enzyme assay (kynuramine). The data set is classed as biochemical.

For another data set, the target named is T4, ADRA1A (Homo sapiens, UniProt P35348).
T4 sequence (P35348 1-466): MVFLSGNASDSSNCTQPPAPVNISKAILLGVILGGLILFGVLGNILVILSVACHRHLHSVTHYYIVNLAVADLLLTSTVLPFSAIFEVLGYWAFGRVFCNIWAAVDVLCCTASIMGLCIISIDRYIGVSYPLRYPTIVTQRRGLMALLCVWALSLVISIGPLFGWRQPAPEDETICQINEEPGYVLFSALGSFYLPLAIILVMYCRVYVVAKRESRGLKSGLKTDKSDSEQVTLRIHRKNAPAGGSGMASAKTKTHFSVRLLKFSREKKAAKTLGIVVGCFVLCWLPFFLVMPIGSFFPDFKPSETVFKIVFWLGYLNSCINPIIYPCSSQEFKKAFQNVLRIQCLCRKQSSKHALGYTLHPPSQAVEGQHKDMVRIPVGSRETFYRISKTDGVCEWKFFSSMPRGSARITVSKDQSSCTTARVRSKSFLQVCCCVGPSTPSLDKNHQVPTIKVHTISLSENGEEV
In words: Calcium secondary messenger assay, antagonist mode. It is filed as cell-based.

Data set [3] concerns the target T2, CNR1. In words: EFC-based cAMP secondary messenger assay, antagonist mode. The data set is classed as cell-based.
Another data set deals with NMDAR (Homo sapiens, UniProt Q05586+Q13224). In words: Ion channel assay (FLIPR membrane potential), opener. It is filed as cell-based.
Sequence of NMDAR (Q13224 27-1484, other chains not shown): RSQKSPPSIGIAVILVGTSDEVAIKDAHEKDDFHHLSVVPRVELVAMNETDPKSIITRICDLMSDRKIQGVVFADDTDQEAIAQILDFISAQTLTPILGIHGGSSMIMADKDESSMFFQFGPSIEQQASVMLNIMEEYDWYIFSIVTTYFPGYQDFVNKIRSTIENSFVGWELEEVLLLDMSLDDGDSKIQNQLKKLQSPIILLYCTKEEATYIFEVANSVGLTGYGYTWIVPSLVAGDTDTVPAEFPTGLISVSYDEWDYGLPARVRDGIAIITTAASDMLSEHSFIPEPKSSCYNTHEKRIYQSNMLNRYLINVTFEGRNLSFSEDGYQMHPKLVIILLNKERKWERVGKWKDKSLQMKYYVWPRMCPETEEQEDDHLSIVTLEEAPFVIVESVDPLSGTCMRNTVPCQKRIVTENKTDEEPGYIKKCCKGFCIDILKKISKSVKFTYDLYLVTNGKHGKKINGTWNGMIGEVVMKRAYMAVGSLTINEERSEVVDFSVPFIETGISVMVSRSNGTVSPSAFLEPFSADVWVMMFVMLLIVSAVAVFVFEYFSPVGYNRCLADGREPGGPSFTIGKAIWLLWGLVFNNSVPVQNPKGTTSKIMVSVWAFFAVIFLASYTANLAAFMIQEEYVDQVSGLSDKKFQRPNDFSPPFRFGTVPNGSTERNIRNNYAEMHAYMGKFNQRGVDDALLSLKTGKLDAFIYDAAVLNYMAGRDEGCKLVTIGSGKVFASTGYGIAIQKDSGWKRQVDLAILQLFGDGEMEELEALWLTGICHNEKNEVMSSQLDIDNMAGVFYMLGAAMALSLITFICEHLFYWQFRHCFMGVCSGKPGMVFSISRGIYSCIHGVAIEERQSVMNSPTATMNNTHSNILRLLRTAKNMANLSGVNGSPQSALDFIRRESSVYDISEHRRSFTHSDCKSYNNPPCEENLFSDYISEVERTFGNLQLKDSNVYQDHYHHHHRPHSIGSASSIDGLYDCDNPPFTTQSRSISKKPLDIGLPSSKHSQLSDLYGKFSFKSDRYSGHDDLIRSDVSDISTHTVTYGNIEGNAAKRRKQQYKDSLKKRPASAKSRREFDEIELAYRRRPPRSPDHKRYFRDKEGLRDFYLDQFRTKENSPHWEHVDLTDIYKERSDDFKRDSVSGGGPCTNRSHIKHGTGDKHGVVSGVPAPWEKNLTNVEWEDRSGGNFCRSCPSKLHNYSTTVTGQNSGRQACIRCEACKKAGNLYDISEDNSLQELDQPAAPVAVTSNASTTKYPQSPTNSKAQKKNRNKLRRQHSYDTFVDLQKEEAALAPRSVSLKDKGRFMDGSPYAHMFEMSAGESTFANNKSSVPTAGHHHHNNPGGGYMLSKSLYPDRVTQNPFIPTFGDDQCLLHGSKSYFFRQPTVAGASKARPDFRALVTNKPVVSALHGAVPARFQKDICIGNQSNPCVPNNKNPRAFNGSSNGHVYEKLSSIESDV

Sequence of HTR1B (5-HTR1B) (P28222 whole entry): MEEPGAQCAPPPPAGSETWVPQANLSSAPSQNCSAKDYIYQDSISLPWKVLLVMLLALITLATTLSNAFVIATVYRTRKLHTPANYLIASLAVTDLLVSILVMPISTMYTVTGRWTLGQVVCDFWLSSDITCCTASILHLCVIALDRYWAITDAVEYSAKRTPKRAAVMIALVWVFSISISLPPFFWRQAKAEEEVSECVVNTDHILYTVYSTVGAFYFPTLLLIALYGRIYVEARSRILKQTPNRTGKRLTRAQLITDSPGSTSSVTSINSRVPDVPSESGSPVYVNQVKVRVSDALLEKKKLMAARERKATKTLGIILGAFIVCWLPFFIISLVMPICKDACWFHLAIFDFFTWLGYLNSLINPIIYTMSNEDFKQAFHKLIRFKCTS
Sequence of AVPR1A (P37288 whole entry): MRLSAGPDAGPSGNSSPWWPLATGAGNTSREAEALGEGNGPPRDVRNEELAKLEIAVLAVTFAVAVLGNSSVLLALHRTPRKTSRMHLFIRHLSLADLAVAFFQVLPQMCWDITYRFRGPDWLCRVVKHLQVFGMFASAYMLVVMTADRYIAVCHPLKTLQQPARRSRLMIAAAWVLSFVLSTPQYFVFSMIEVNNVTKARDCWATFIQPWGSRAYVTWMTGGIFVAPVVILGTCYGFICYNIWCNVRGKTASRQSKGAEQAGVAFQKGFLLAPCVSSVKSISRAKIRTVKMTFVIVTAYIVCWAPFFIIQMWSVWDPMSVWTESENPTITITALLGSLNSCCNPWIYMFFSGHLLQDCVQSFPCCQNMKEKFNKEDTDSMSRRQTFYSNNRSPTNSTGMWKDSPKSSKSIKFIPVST
T2 sequence (P21554 whole entry): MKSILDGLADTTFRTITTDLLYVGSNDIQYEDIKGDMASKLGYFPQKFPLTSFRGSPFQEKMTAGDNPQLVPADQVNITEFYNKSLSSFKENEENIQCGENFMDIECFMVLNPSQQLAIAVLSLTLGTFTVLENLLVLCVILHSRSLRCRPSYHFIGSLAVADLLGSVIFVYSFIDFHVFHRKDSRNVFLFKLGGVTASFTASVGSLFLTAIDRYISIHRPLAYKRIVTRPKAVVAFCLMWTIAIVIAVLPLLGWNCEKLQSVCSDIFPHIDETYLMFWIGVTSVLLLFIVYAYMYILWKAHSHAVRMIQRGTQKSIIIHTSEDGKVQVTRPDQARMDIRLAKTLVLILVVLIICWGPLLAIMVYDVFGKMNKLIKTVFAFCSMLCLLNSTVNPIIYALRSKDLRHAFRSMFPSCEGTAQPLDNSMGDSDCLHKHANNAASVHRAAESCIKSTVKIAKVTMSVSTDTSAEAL
Sequence of DAT (Q01959 whole entry): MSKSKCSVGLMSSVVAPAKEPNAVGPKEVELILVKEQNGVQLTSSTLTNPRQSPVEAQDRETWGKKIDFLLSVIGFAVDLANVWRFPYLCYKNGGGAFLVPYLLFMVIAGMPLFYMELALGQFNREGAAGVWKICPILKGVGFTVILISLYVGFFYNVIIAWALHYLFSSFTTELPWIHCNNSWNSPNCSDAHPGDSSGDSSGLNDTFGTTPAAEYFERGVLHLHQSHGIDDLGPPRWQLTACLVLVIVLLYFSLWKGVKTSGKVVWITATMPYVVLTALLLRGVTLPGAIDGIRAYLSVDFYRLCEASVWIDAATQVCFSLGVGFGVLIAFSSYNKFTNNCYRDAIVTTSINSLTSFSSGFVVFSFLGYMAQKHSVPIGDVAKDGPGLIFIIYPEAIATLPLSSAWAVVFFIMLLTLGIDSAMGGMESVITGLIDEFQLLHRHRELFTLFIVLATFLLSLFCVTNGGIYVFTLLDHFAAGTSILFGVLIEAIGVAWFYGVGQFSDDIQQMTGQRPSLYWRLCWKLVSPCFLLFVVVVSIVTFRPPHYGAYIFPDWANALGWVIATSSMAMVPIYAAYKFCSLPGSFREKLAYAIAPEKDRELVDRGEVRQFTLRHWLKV

In the case of `CN(C)CCc1c[nH]c2cccc(OC(=O)CC3CC3)c12` [C(IV)], the 50% inhibitory concentration (IC50) against DAT is > 100 µM; on CHRM2, > 100 µM; at MAO-A, 34.4 µM; on ADRA1A, 26.4 µM; against CNR1 [3] it was > 100 µM. For the same molecule, the EC50 on HTR1B (5-HTR1B) was 0.027 µM; at AVPR1A it was > 100 µM; at CNR1 [1] it was > 100 µM; at NMDAR it was > 100 µM. Moreover, the “Plasma concentration of psilocin” value is “BLQ” in data set [2] (0.275 mg/kg oral C(IV), 4 h, individual animals, BLQ = below 0.2 ng/mL); “BLQ” in data set [2] (0.275 mg/kg oral C(IV), 6 h, individual animals, BLQ = below 0.2 ng/mL); “BLQ” in [2] (0.275 mg/kg oral C(IV), 8 h, individual animals, BLQ = below 0.2 ng/mL); “No Peak” in data set [2] (0.275 mg/kg oral C(IV), 24 h, individual animals); “No Peak and BLQ (2×)” in data set [2] (0.293 mg/kg i.v. C(IV), 8 h, individual animals, BLQ = below 0.2 ng/mL); “BLQ” in data set [2] (0.789 mg/kg oral C(IV), 8 h, individual animals, BLQ = below 0.2 ng/mL). In addition, the “Plasma concentration of psilocin” value was “No Peak” in data set [2] (0.789 mg/kg oral C(IV), 24 h, individual animals); “BLQ and No Peak (2×)” in [2] (2.52 mg/kg oral C(IV), 24 h, individual animals, BLQ = below 0.2 ng/mL). The “detectability of parent compound in plasma, any dose” value in [2] (mouse) is “not detectable in any animals at any dose”.

For the molecule `COc1ccc(C(=O)Oc2cccc3[nH]cc(CCN(C)C)c23)cc1` [C(V)], the IC50 against DAT was > 100 µM; against CHRM2 it was > 100 µM; against MAO-A, 76 µM; at ADRA1A, 14.9 µM; at CNR1 [3], > 100 µM. Moreover, the half-maximal effective concentration (EC50) at HTR1B (5-HTR1B) is 0.29 µM; at AVPR1A, > 100 µM; on CNR1 [1], > 100 µM; on NMDAR it was > 100 µM. Further, the concentration at 0.25 h in [2] (male, C57Bl/6, mouse, plasma, iv, 1 mg/kg, mouse, C(V) 1 mg/kg i.v., 0.25 h, C(V) not stable in plasma, not considered accurate, read-out: Plasma concentration of C(V)) was determined as 0.834 ng/mL. In data set [2] (male, C57Bl/6, mouse, plasma, iv, 1 mg/kg, mouse, C(V) 1 mg/kg i.v., estimates not considered accurate (plasma instability), read-out: tmax of C(V)), the Tmax is 5 min. Moreover, the stability in plasma entry in data set [2] (mouse plasma, PK bioanalysis) is “unstable in plasma”. Also, the “detectability of parent compound in plasma, i.v. dosing” value in data set [2] (mouse, 1 mg/kg i.v.) is reported as “only detectable in iv. administered animals”. The “Plasma concentration of C(V)” value in [2] (mouse, C(V) 1 mg/kg i.v., 0.5 h, 1 mg/kg) is “BLQ and No Peak”; in [2] (mouse, C(V) 1 mg/kg i.v., 1 h), “No Peak”; in data set [2] (mouse, C(V) 1 mg/kg i.v., 2 h), “No Peak”; in [2] (mouse, C(V) 1 mg/kg i.v., 4 h) it was “No Peak”; in data set [2] (mouse, C(V) 1 mg/kg i.v., 6 h), “No Peak”; in [2] (mouse, C(V) 1 mg/kg i.v., 8 h), “No Peak”. For the same molecule, the “tmax of C(V)” value in data set [2] (mouse, C(V) 1 mg/kg i.v., estimates not considered accurate (plasma instability), 1 mg/kg) was 0.0833 h (2×) and 0.0833 ± 0.00 h. In addition, the “Plasma concentration of psilocin” value in data set [2] (mouse, C(V) 1 mg/kg oral, 24 h, 1 mg/kg) is “No Peak and BLQ”; in data set [2] (mouse, C(V) 3 mg/kg oral, 24 h, 3 mg/kg) it was “No Peak and BLQ”; in data set [2] (mouse, C(V) 10 mg/kg oral, 24 h, 10 mg/kg) it was “BLQ and No Peak”. Further, the “detectability of parent compound in plasma, oral dosing” value in [2] (mouse, oral, any dose (1, 3, 10 mg/kg)) is “not detectable”.

Take `CN(C)CCc1c[nH]c2cccc(OC(=O)c3c(F)c(F)c(F)c(F)c3F)c12` [C(VI)]: the IC50 is > 100 µM against DAT; > 100 µM on CHRM2; 20.7 µM against MAO-A; 26.9 µM on ADRA1A; > 100 µM at CNR1 [3]. Moreover, the concentration for a half-maximal effect (EC50) at HTR1B (5-HTR1B) was 0.1 µM; at AVPR1A, > 100 µM; on CNR1 [1] it was 62.9 µM; at NMDAR it was > 100 µM. For the same molecule, the “Plasma concentration of psilocin” value is “BLQ” in data set [2] (mouse, C(VI) 1 mg/kg i.v., 8 h); “BLQ and No Peak” in data set [2] (mouse, C(VI) 1 mg/kg oral, 24 h, 1 mg/kg); “BLQ and No Peak” in data set [2] (mouse, C(VI) 3 mg/kg oral, 24 h, 3 mg/kg); “BLQ” in data set [2] (mouse, C(VI) 10 mg/kg oral, 24 h). Further, in [2] (mouse), the “detectability of parent compound in plasma, any dose” value is recorded as “not detectable in any animals at any dose”.
